The values that follow come from patent publication US20040028623A1, “Formulations for the removal of dental plaque, tartar and dental stains” (priority 2000, published 2004).

The conditions of test [1]: aqueous solution of 2%, 30° C, without light, tooth rinsed and lightly brushed and solution changed every two days. How it is done: The in vitro evaluation of anti-tartar activity was carried out on an extracted tooth. The amount of tartar on said tooth was quantified before the test. The tooth was then immersed. Into an aqueous solution of 2% glutathlone and kept in a closed vessel without light at 30° C. Every two days said tooth was rinsed and lightly brushed and the solution was changed.

How the values of test [2] were obtained:
In another clinical test five volunteers were chose, all male and smokers, characterized by a strong formation of dental calculus (tartar), especially in the zone of the lingual face of the lower incisors. Each volunteer underwent an application of 200 mg of pure glutathione in powder on the lingual face of the lower incisors by means of a single-tuft toothbrush with medium bristles, followed-by a tooth brushing for ten minutes with the same toothbrush. After a rinse with water the operation was repeated, always for ten minutes using a further 200 mg of glutathione.

How the values of test [3] were obtained:
In another clinical test five volunteers were chose, all male and smokers, characterized by a strong formation of dental calculus (tartar), especially IN the zone of the lingual face of the lower incisors. Each volunteer underwent an application of 500 mg of pure glutathione in powder on the lingual face of the lower incisors by means of a single-tuft toothbrush with medium bristles, followed by a tooth brushing for ten minutes with the same toothbrush. After a rinse with water the operation was repeated, always for ten minutes using a further 500 mg of glutathione.
This is another data set of the same source.

Like-named read-outs stand apart in the source and are kept apart here.

As to `N[C@@H](CCC(=O)N[C@@H](CS)C(=O)NCC(=O)O)C(=O)O` [glutathione], in test [1], the “time until removal of tartar was completed” value is on record as “two to three weeks” and the “time until removal of tartar was evident” value is “after only four days”. Besides, the “reduction of dental calculus (tartar)” value in test [2] (all five volunteers, zones where brushing had been carried out, 2 x 200 mg powder, 2 x ten minutes brushing) is on record as “consistent reduction”. Moreover, the “residual dental calculus (tartar)” value in test [2] (sub-gingival and interstitial zones where brushing had not been properly carried out, 2 x 200 mg) is on record as “presence of residual dental calculus (tartar)”. Moreover, the “removal of dental calculus (tartar)” value in test [3] (all five volunteers, zones where brushing had been carried out, 2 x 500 mg powder, 2 x ten minutes brushing) was “complete removal”. Further, the “residual dental calculus (tartar)” value in test [3] (sub-gingival and interstitial zones where brushing had not been properly carried out, 2 x 500 mg) is “presence of residual dental calculus (tartar)”.
